Values quoted from earlier work in Sander's compilation of Henry's law constants (doi:10.1021/ci0256485).

Assay: Henry solubility constant Hcp at 298.15 K (mol/(m3 Pa))
Settings: reference: Delgado and Alderete (2003); cited value

Row | Compound | Henry solubility constant Hcp
1 | Cc1nnc(-c2ccccc2)c(=O)n1N [metamitron] | 2.2e+06
2 | CCNc1nc(NC(C)C)nc(SC)n1 [ametryn] | 4100
